Where two headings read alike, the source gives them in different places.
What was measured:
[1] = target: c-Kit(V654A) (Homo sapiens, UniProt P10721, V654A); assay: c-Kit(V654A) assay; assay type: biochemical
Experimental: c-Kit(V654A) (N-terminal GST-tagged, recombinant human c-Kit, amino acids 544-end containing the V654A mutation) is incubated with 8 mM MOPS pH 7.0, 0.2 mM EDTA, 250 μM GGMEDIYEFMGGKKK, 10 mM MgAcetate and [gamma-33P-ATP](specific activity approx. 500 cpm/pmol, concentration 200 μM). The reaction is initiated by the addition of the MgATP mix. After incubation for 40 minutes at room temperature, the reaction is stopped by the addition of 3% phosphoric acid solution. 10 μL of the reaction is then spotted onto a P30 filtermat and washed three times for 5 minutes in 75 mM phosphoric acid and once in methanol prior to drying and scintillation counting.

[2] = target: mutant cKIT (560-576 and V654A) in GIST430/654 cell line (Homo sapiens (Human), UniProt P10721, DEL560-576/V654A); assay: Cellular testing of cKIT mutant inhibitors: phospho-Y307-cKIT Luminex assay in GIST430/654 cells; assay type: cell-based; conditions: read-out: GIST 430/654 IC50
Experimental: Assay Principle for Cellular Testing of cKIT Mutant Inhibitors
The GIST430/654 cell line expressing mutated constitutively active cKIT receptor tyrosine kinase ([…]560-576 and V654A) was employed for assessing cellular potency of compounds. Cellular activity of mutant cKIT was determined by the degree of cKIT autophosphorylation at tyrosine 307 using a Luminex-based bead assay. GIST430/654 cells were plated with 25,000 cells per well of a 96-well plate in 100 μl medium (85% IMDM/15% FCS supplemented with 100 nM Imatinib). At the following day compounds were added in a serial dilution for 45 min. Then, cells were lysed with 90 μl lysis buffer (20 mM Hepes pH 7.5, 200 mM NaCl, 1.5 mM MgCl2×6H2O, 0.4 mM EDTA, 1% Triton-X-100, 1% Phosphatase-Inhibitor II, 20 mM D-Glycerolphosphat, 0.1% Protease-Inhibitor Cocktail III, 0.01% Benzonase) und lysates were cleared by centrifugation through a 96-well filter plate (0.65 μm). Samples were incubated with Luminex-beads which were coupled with an anti-total cKIT antibody overnight at 4° C. under gentle agitation. For detection of phospho-Y307-cKIT a phosphospecific antibody and a species-specific PE-labelled secondary antibody were added. The amount of phospho-Y307-cKIT was determined in a Luminex 200 instrument measuring 100 events per well within 60 seconds.
Counts from samples treated with compounds were calculated as percent of control from solvent treated (0.3% DMSO) samples. Dose-response curves were fitted and IC50 values were determined using Genedata Screener software.

[3] = Table 1, cKIT autophosphorylation, compounds 45 min
[4] = Table 2, isoxazole derivatives presently described

Sequence of mutant cKIT (560-576 and V654A) in GIST430/654 cell line (P10721 other isoform, or with tags, fused parts or gaps V654A/del 1-25/del 560-576 limits assumed): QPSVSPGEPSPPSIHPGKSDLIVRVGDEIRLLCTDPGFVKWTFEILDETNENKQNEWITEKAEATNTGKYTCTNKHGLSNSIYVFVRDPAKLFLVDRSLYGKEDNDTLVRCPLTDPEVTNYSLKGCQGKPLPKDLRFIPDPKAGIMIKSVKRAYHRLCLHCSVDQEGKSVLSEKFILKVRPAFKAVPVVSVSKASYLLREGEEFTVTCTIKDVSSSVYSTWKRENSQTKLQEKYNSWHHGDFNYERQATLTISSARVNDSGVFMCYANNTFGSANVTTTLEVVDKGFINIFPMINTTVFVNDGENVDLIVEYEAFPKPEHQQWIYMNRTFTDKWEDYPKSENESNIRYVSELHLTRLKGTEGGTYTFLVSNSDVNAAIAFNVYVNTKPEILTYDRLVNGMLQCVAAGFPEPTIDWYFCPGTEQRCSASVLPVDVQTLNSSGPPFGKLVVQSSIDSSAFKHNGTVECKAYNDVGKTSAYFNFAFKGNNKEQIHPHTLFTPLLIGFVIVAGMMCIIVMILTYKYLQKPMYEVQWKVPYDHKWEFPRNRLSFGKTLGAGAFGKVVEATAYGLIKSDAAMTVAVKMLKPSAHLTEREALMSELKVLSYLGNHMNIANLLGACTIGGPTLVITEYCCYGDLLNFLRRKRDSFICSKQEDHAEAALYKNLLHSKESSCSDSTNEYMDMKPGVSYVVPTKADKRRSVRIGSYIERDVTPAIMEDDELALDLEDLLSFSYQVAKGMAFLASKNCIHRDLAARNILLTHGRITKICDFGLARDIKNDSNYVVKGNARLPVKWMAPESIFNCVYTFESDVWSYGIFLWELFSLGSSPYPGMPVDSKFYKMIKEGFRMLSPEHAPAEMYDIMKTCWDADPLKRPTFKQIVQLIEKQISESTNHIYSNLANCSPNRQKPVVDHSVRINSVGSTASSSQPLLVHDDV

COCCOc1cc2[nH]nc(-c3cc(-c4ccc(C(=O)N5CC[S+]([O-])CC5)cc4)no3)c2cc1F [A78, 4-(4-{5-[5-fluoro-6-(2-methoxyethoxy)-1H-indazol-3-yl]-1,2-oxazol-3-yl}benzoyl)-1lambda4-thiomorpholin-1-one]
IC50 ([1]; Table 1, 200 μM ATP): 0.00076 µM
IC50 [2, 3]: 0.16 µM

CCOc1cc2[nH]nc(-c3cc(-c4ccc(C(=O)N5CCN(C6COC6)CC5)cc4)no3)c2cc1F [A229, 6-ethoxy-5-fluoro-3-(3-{4-[4-(oxetan-3-yl)piperazine-1-carbonyl]phenyl}-1,2-oxazol-5-yl)-1H-indazole]
IC50 ([1]; Table 1, 200 μM ATP): 0.047 µM
IC50 [2, 3]: 1.1 µM

COCCOc1cc2[nH]nc(-c3cc(-c4ccc(C(=O)N5CCC[C@H]5C(C)(C)O)nc4)no3)c2cc1F [A107, 2-[(2S)-1-(5-{5-[5-fluoro-6-(2-methoxyethoxy)-1H-indazol-3-yl]-1,2-oxazol-3-yl}pyridine-2-carbonyl)pyrrolidin-2-yl]propan-2-ol]
IC50 ([1]; Table 1, 200 μM ATP): 0.0056 µM
IC50 [2, 3]: 0.053 µM

C[C@H]1CN(C)CCN1C(=O)c1ccc(-c2cc(-c3n[nH]c4cc(-c5cnn(C)c5)ccc34)on2)cc1 [A9, 3-(3-{4-[(2S)-2,4-dimethylpiperazine-1-carbonyl]phenyl}-1,2-oxazol-5-yl)-6-(1-methyl-1H-pyrazol-4-yl)-1H-indazole]
IC50 ([1]; Table 1, 200 μM ATP): 0.0088 µM
IC50 [2, 3]: 0.13 µM

COCCOc1cc2[nH]nc(-c3cc(-c4ccc(C(=O)N(C)C)cc4)no3)c2cc1Cl [A12, 4-{5-[5-chloro-6-(2-methoxyethoxy)-1H-indazol-3-yl]-1,2-oxazol-3-yl}-N,N-dimethylbenzamide]
IC50 ([1]; Table 1, 200 μM ATP): 0.00091 µM
IC50 [2, 3]: 0.16 µM

COCCOc1cc2[nH]nc(-c3cc(-c4ccc(C(=O)N5CCOC[C@@H]5CO)cc4)no3)c2cc1Cl [A66, (4-{5-[5-chloro-6-(2-methoxy-ethoxy)-1H-indazol-3-yl]-isoxazol-3-yl}-phenyl)-((S)-3-hydroxymethyl-morpholin-4-yl)-methanone]
IC50 ([1]; Table 1, 200 μM ATP): 0.00065 µM
IC50 [2, 3]: 0.052 µM

COCCOc1cc2[nH]nc(-c3cc(-c4ccc(C(=O)N5CC(F)C5)nc4)no3)c2cc1F [A98, (3-fluoro-azetidin-1-yl)-(5-{5-[5-fluoro-6-(2-methoxy-ethoxy)-1H-indazol-3-yl]-isoxazol-3-yl}-pyridin-2-yl)-methanone]
IC50 ([1]; Table 1, 200 μM ATP): 0.015 µM
IC50 [2, 3]: 0.86 µM

COCCOc1cc2[nH]nc(-c3cc(-c4ccc(C(=O)NC5CN(C)C5)cc4)no3)c2cc1F [A73, 4-{5-[5-fluoro-6-(2-methoxyethoxy)-1H-indazol-3-yl]-1,2-oxazol-3-yl}-N-(1-methylazetidin-3-yl)benzamide]
IC50 ([1]; Table 1, 200 μM ATP): 0.004 µM
IC50 [2, 3]: 0.43 µM

COCCOc1cc2[nH]nc(-c3cc(-c4ccc(C(=O)N5CCN(C)C[C@@H]5C)cc4)no3)c2cc1F [A3, 3-(3-{4-[(2S)-2,4-dimethylpiperazine-1-carbonyl]phenyl}-1,2-oxazol-5-yl)-5-fluoro-6-(2-methoxyethoxy)-1H-indazole]
IC50 ([1]; Table 1, 200 μM ATP): 0.0014 µM
IC50 [1, 4]: 0.0014 µM
IC50 [2, 3]: 0.038 µM
IC50 [2, 4]: 0.038 µM

COCCOc1cc2[nH]nc(-c3cc(-c4ccc(C(=O)N5CCC[C@@H]5C(C)(C)O)nc4)no3)c2cc1F [A109, (5-{5-[5-fluoro-6-(2-methoxy-ethoxy)-1H-indazol-3-yl]-isoxazol-3-yl}-pyridin-2-yl)-[(R)-2-(1-hydroxy-1-methyl-ethyl)-pyrrolidin-1-yl]-methanone]
IC50 ([1]; Table 1, 200 μM ATP): 0.0091 µM
IC50 [2, 3]: 0.43 µM

COCCOc1cc2[nH]nc(-c3cc(-c4ccc(C(=O)N5CC(N6CCOCC6)C5)nc4)no3)c2cc1F [A69, (5-{5-[5-fluoro-6-(2-methoxy-ethoxy)-1H-indazol-3-yl]-isoxazol-3-yl}-pyridin-2-yl)-(3-morpholin-4-yl-azetidin-1-yl)-methanone]
IC50 ([1]; Table 1, 200 μM ATP): 0.02 µM
IC50 [2, 3]: 0.19 µM

COCCOc1cc2[nH]nc(-c3cc(-c4ccc(C(=O)N5CC(N6CCOC[C@H]6C)C5)cc4)no3)c2cc1F [A201, 5-fluoro-6-(2-methoxyethoxy)-3-[3-(4-{3-[(3R)-3-methylmorpholin-4-yl]azetidine-1-carbonyl}phenyl)-1,2-oxazol-5-yl]-1H-indazole]
IC50 ([1]; Table 1, 200 μM ATP): 0.002 µM
IC50 [2, 3]: 0.031 µM

COCCOc1cc2[nH]nc(-c3cc(-c4nc(C(=O)N5CC(N6CCOCC6)C5)cs4)no3)c2cc1F [A84, 5-fluoro-6-(2-methoxyethoxy)-3-(3-{4-[3-(morpholin-4-yl)azetidine-1-carbonyl]-1,3-thiazol-2-yl}-1,2-oxazol-5-yl)-1H-indazole]
IC50 ([1]; Table 1, 200 μM ATP): 0.035 µM
IC50 [2, 3]: 1.8 µM

COCCOc1cc2[nH]nc(-c3cc(-c4ccc(C5CCN(C)CC5(C)C)cc4)no3)c2cc1F (stereo not shown) [A231, 5-fluoro-6-(2-methoxy-ethoxy)-3-{3-[4-(1,3,3-trimethyl-piperidin-4-yl)-phenyl]-isoxazol-5-yl}-1H-indazole]
IC50 ([1]; Table 1, 200 μM ATP): 0.00061 µM
IC50 [2, 3]: 0.052 µM

COCCOc1cc2[nH]nc(-c3cc(-c4ccc(N5CC[S+]([O-])CC5)nc4)no3)c2cc1F [A140, 4-(5-{5-[5-fluoro-6-(2-methoxyethoxy)-1H-indazol-3-yl]-1,2-oxazol-3-yl}pyridin-2-yl)-1lambda4-thiomorpholin-1-one]
IC50 ([1]; Table 1, 200 μM ATP): 0.0016 µM
IC50 [2, 3]: 0.046 µM

COCCOc1cc2[nH]nc(-c3cc(-c4ccc(C(=O)N5C[C@@H]6CN(C7COC7)C[C@@H]6C5)cc4)no3)c2cc1F [A216, 3-(3-{4-[(cis)-5-(oxetan-3-yl)-octahydropyrrolo[3,4-c]pyrrole-2-carbonyl]phenyl}-1,2-oxazol-5-yl)-5-fluoro-6-(2-methoxyethoxy)-1H-indazole]
IC50 ([1]; Table 1, 200 μM ATP): 0.0011 µM
IC50 [2, 3]: 0.027 µM

COCCOc1cc2[nH]nc(-c3cc(-c4ccc(C(=O)N5CCC6(COC6)C5)cc4)no3)c2cc1F [A158, 5-fluoro-6-(2-methoxyethoxy)-3-[3-(4-{2-oxa-6-azaspiro[3.4]octane-6-carbonyl}phenyl)-1,2-oxazol-5-yl]-1H-indazole]
IC50 ([1]; Table 1, 200 μM ATP): 0.00046 µM
IC50 [2, 3]: 0.032 µM

COCCOc1cc2[nH]nc(-c3cc(-c4ccc(C(=O)N5CC(n6ccnc6)C5)cc4)no3)c2cc1F [A85, 5-fluoro-3-(3-{4-[3-(1H-imidazol-1-yl)azetidine-1-carbonyl]phenyl}-1,2-oxazol-5-yl)-6-(2-methoxyethoxy)-1H-indazole]
IC50 ([1]; Table 1, 200 μM ATP): 0.00063 µM
IC50 [2, 3]: 0.13 µM

COCCOc1cc2[nH]nc(-c3cc(-c4nc(C(=O)N5CC(F)C5)cs4)no3)c2cc1F [A87, 5-fluoro-3-{3-[4-(3-fluoroazetidine-1-carbonyl)-1,3-thiazol-2-yl]-1,2-oxazol-5-yl}-6-(2-methoxyethoxy)-1H-indazole]
IC50 ([1]; Table 1, 200 μM ATP): 0.038 µM
IC50 [2, 3]: 0.59 µM

COCCOc1cc2[nH]nc(-c3cc(-c4ccc(C(=O)N(C)C5CC5)cc4)no3)c2cc1F [A31, N-cyclopropyl-4-{5-[5-fluoro-6-(2-methoxyethoxy)-1H-indazol-3-yl]-1,2-oxazol-3-yl}-N-methylbenzamide]
IC50 ([1]; Table 1, 200 μM ATP): 0.0011 µM
IC50 [2, 3]: 0.035 µM

COCCOc1cc2[nH]nc(-c3cc(-c4ccc(N5CC[C@@H]6[C@@H]5CCN6C)cc4)no3)c2cc1F (relative stereo) [A126, 3-(3-{4-[(trans)-4-methyl-octahydropyrrolo[3,2-b]pyrrol-1-yl]phenyl}-1,2-oxazol-5-yl)-5-fluoro-6-(2-methoxyethoxy)-1H-indazole]
IC50 ([1]; Table 1, 200 μM ATP): 0.0017 µM
IC50 [2, 3]: 0.2 µM

COCCOc1cc2[nH]nc(-c3cc(-c4ccc(C(=O)N5CCN(C)CC5)cc4)no3)c2cc1Cl [A167, (4-{5-[5-chloro-6-(2-methoxy-ethoxy)-1H-indazol-3-yl]-isoxazol-3-yl}-phenyl)-(4-methyl-piperazin-1-yl)-methanone]
IC50 ([1]; Table 1, 200 μM ATP): 0.0004 µM
IC50 [2, 3]: 0.074 µM
